Where “and” joins values, the source holds several entries; their conditions need not be identical. Identical values can stand only once.
What was measured:
[1] = target: Glutamate receptor ionotropic, AMPA (Rattus norvegicus, UniProt P19490+P19491+P19492+P19493); assay: Binding selectivity towards Ionotropic glutamate receptor AMPA was determined by using [3H]- AMPA; type: protein-complex assay
[2] = target: Glutamate receptor ionotropic, NMDA 1 (Rattus norvegicus, UniProt P35439); assay: Binding selectivity towards N-methyl-D-aspartate glutamate receptor 1 was determined by using [3H]- glycine/NMDA

SMILES | Ki [1] [µM] | Ki [2]
O=C[n+]1cccn1-c1cc2c(cc1Cl)[nH]c(=O)c1nc(C(=O)O)nn12 | 0.53 | 28 µM
O=C(O)c1nc2c(=O)[nH]c3cc(Cl)c(-n4ccnc4)cc3n2n1 | 0.14 | 33.5 µM
O=C(O)c1cc2n(n1)C(C(=O)O)Nc1cc(Cl)c(Cl)cc1-2 (stereo not given) | 2.4 | 0.16 µM
CCOC(=O)c1nc2c(O)nc3cc(Cl)c(-n4cccn4)cc3n2n1 | 18.4 | 23 µM
O=C(O)c1cc2n(n1)C(C(=O)O)Nc1cc(Cl)c([N+](=O)[O-])cc1-2 (stereo not given) | 0.74 | 1.1 µM
CCOC(=O)c1nc2c(=O)[nH]c3cc(Cl)c(N)cc3n2n1 |  | 4.8 µM
CCOC(=O)c1cc2n(n1)C(C(=O)O)Nc1cc(Cl)c([N+](=O)[O-])cc1-2 (stereo not given) | 8.2 | 10.6 µM
O=C[n+]1cccn1-c1cc2c(cc1Cl)NC(C(=O)O)n1nc(C(=O)O)cc1-2 (stereo not given) | 0.27 | 8.2 µM
O=C(O)c1cc2n(n1)C(C(=O)O)Nc1ccccc1-2 (stereo not given) | 12.4 | 1.41 µM
Nc1cc2c(cc1Cl)nc(O)c1nc(C(=O)O)nn12 |  | 3.6 µM
O=C(O)c1cc2n(n1)C(C(=O)O)Nc1cc(Cl)ccc1-2 (stereo not given) | 2.3 | 0.48 µM
O=C(O)c1nc2c(=O)[nH]c3cc(Cl)c(-n4cccn4)cc3n2n1 | 0.86 | 0.86 µM and 5.3 µM
CCOC(=O)c1nc2c(=O)[nH]c3cc(Cl)c(-n4ccc[n+]4C=O)cc3n2n1 | 1.9 | 19 µM
CCOC(=O)c1cc2n(n1)C(C(=O)O)Nc1cc(Cl)ccc1-2 (stereo not given) | 72 | 26.5 µM
CCOC(=O)c1nc2c(O)nc3cc(Cl)c([N+](=O)[O-])cc3n2n1 |  | 10.2 µM
CCOC(=O)c1cc2n(n1)C(C(=O)O)Nc1cc(Cl)c(-n3ccc[n+]3C=O)cc1-2 (stereo not given) | 1.4 | 57 µM
CCOC(=O)c1nc2c(O)nc3ccc(Cl)c(Cl)c3n2n1 | 4.9 | 4.8 µM
O=C(O)c1cc2n(n1)C(C(=O)O)Nc1cc(Cl)c(-n3ccnc3)cc1-2 (stereo not given) | 0.14 | 8.3 µM
CCOC(=O)c1cc2n(n1)C(C(=O)O)Nc1ccccc1-2 (stereo not given) | 42 | 33.3 µM
